Measured values taken from patent publication US11207321B2, “Methods and medical uses” (Institute of Cancer Research: Royal Cancer Hospital (The), priority 2017, dated 2021).

Test system: palbociclib-resistant breast cancer cell lines (wild type and LTED)
Test: Proliferation assays with MPS1 inhibitors in panel of palbociclib-resistant breast cancer cell lines
Assay type: cell-based
Conditions: addition of CCT289346 to palbociclib
Method: Wt cells were stripped of E2 for 72 hrs prior to experiment. After 24 hrs cells were treated with escalating doses of MPS1 inhibitors±palbocliclib. Media was replaced after 3 days and cell viability was assessed after 6 days using the CellTitre-Glo® Luminescent Cell Viability Assay (Promega) according to manufacturer's instructions.

For `CCOc1cc(-c2nncn2C)ccc1Nc1ncc2cc(C)nc(NCC(C)(C)C)c2n1` [CCT289346, N2-(2-ethoxy-4-(4-methyl-4H-1,2,4-triazol-3-yl)phenyl)-6-methyl-N8-neopentylpyrido[3,4-d]pyrimidine-2,8-diamine], the “effect of combination with palbociclib” value was “synergistic/additive effect”.
